Measured values reported in PubChem BioAssay AID192 (DTP/NCI, 2004).
“And” between values parts separate entries of the source, which are not always exact repeats. Equal values may be shown once. Toxic doses and inconclusive results are not listed.

System: BDF1 mice, B16 melanoma ip, median survival T/C
Assay: NCI In Vivo Anticancer Drug Screen. Data for tumor model B16 Melanoma (intraperitoneal) in B6D2F1 (BDF1) mice
Conditions: endpoint: median survival time, higher = longer survival
Outline: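 Read-out: survival or tumor size, given as treated/control ratio. Controls received vehicle only; animals bore transplantable tumors.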

[1] = dose: 100.0 mg/kg/injection, schedule: Q01DX009 (ip), vehicle: Klucel (hydroxypropylcellulose) (HPC)
[2] = dose: 100.0 mg/kg/injection, schedule: Q04DX003 (ip), vehicle: Klucel (hydroxypropylcellulose) (HPC)
[3] = dose: 200.0 mg/kg/injection, schedule: Q01DX009 (ip), vehicle: Klucel (hydroxypropylcellulose) (HPC)
[4] = dose: 200.0 mg/kg/injection, schedule: Q04DX003 (ip), vehicle: Klucel (hydroxypropylcellulose) (HPC)
[5] = dose: 400.0 mg/kg/injection, schedule: Q01DX009 (ip), vehicle: Klucel (hydroxypropylcellulose) (HPC)
[6] = dose: 400.0 mg/kg/injection, schedule: Q04DX003 (ip), vehicle: Klucel (hydroxypropylcellulose) (HPC)
[7] = dose: 2.0 mg/kg/injection, schedule: Q01DX009 (ip), vehicle: saline
[8] = dose: 6.25 mg/kg/injection, schedule: Q01DX009 (ip), vehicle: saline with Tween-80
[9] = dose: 12.5 mg/kg/injection, schedule: Q01DX009 (ip), vehicle: saline with Tween-80
[10] = dose: 25.0 mg/kg/injection, schedule: Q01DX009 (ip), vehicle: saline with Tween-80
[11] = dose: 100.0 mg/kg/injection, schedule: Q01DX009 (ip), vehicle: saline with Tween-80
[12] = dose: 400.0 mg/kg/injection, schedule: Q01DX009 (ip), vehicle: saline with Tween-80
[13] = dose: 0.78 mg/kg/injection, schedule: Q01DX009 (ip), vehicle: saline
[14] = dose: 1.56 mg/kg/injection, schedule: Q01DX009 (ip), vehicle: saline
[15] = dose: 8.0 mg/kg/injection, schedule: Q01DX009 (ip), vehicle: saline with Tween-80
[16] = dose: 50.0 mg/kg/injection, schedule: Q01DX009 (ip), vehicle: saline with Tween-80

Cc1ccc(NC(=O)Nc2cccc(Cl)c2)cc1C
T/C [1]: 86 % of control | T/C [2]: 92 % of control | T/C [3]: 86 % of control | T/C [4]: 92 % of control | T/C [5]: 86 % of control | T/C [6]: 92 % of control

NC(=O)c1ccc(N)nc1
T/C (dose: 0.09 mg/kg/injection, schedule: Q01DX009 (ip), vehicle: saline): 100 % of control | T/C (dose: 0.18 mg/kg/injection, schedule: Q01DX009 (ip), vehicle: saline): 86 % of control and 107 % of control | T/C (dose: 0.37 mg/kg/injection, schedule: Q01DX009 (ip), vehicle: saline): 113 % of control and 114 % of control | T/C (dose: 0.75 mg/kg/injection, schedule: Q01DX009 (ip), vehicle: saline): 102 % of control | T/C (dose: 1.5 mg/kg/injection, schedule: Q01DX009 (ip), vehicle: saline): 112 % of control and 115 % of control | T/C [7]: 100 % of control | T/C (dose: 3.12 mg/kg/injection, schedule: Q04DX003 (ip), vehicle: saline): 111 % of control | T/C (dose: 6.25 mg/kg/injection, schedule: Q04DX003 (ip), vehicle: saline): 107 % of control

O=C(O)C1(Cl)CC2C=CC1C2 (centres undefined)
T/C (dose: 50.0 mg/kg/injection, schedule: Q04DX003 (ip), vehicle: saline with Tween-80): 105 % of control | T/C (dose: 100.0 mg/kg/injection, schedule: Q04DX003 (ip), vehicle: saline with Tween-80): 97 % of control | T/C (dose: 200.0 mg/kg/injection, schedule: Q04DX003 (ip), vehicle: saline with Tween-80): 88 % of control

CC(C)CN(CC(C)C)c1ccc([N+](=O)[O-])cc1[N+](=O)[O-]
T/C [8]: 105 % of control | T/C [9]: 107 % of control | T/C [10]: 87 % of control and 114 % of control | T/C [11]: 105 % of control | T/C [12]: 86 % of control

C[NH-].C[NH-].[Cl][Pt+2][Cl]
T/C (dose: 0.39 mg/kg/injection, schedule: Q01DX009 (ip), vehicle: saline): 102 % of control | T/C [13]: 104 % of control | T/C [14]: 112 % of control | T/C (dose: 3.13 mg/kg/injection, schedule: Q01DX009 (ip), vehicle: saline): 121 % of control | T/C [15]: 154 % of control

CCC[CH2][Sn]1([CH2]CCC)[O]OC(c2ccc(OC)cc2)[O]1 (centres undefined)
T/C (dose: 3.12 mg/kg/injection, schedule: Q01DX009 (sc), vehicle: olive oil, sesame oil, peanut oil): 93 % of control

COc1cc(OC)c(/C=C/c2c3ccccc3cc[n+]2C)c(OC)c1
T/C (dose: 0.78 mg/kg/injection, schedule: Q01DX009 (ip), vehicle: saline with Tween-80): 97 % of control | T/C (dose: 1.56 mg/kg/injection, schedule: Q01DX009 (ip), vehicle: saline with Tween-80): 102 % of control

O=C(COc1ccc(Cl)cc1)NCCc1ccccc1
T/C [1]: 93 % of control | T/C [3]: 103 % of control | T/C [5]: 90 % of control

O=c1nc(NC(=S)Nc2ccn(C3OC(CO)C(O)C3O)c(=O)n2)ccn1C1OC(CO)C(O)C1O (centres undefined)
T/C (dose: 4.0 mg/kg/injection, schedule: Q01DX009 (ip), vehicle: saline sonified): 97 % of control | T/C (dose: 8.0 mg/kg/injection, schedule: Q01DX009 (ip), vehicle: saline sonified): 102 % of control | T/C [15]: 95 % of control | T/C (dose: 16.0 mg/kg/injection, schedule: Q01DX009 (ip), vehicle: saline sonified): 100 % of control | T/C (dose: 16.0 mg/kg/injection, schedule: Q01DX009 (ip), vehicle: saline with Tween-80): 108 % of control | T/C (dose: 32.0 mg/kg/injection, schedule: Q01DX009 (ip), vehicle: saline sonified): 102 % of control | T/C (dose: 32.0 mg/kg/injection, schedule: Q01DX009 (ip), vehicle: saline with Tween-80): 95 % of control | T/C (dose: 64.0 mg/kg/injection, schedule: Q01DX009 (ip), vehicle: saline with Tween-80): 104 % of control

CSc1ncnc2c1ncn2-n1cccc1
T/C [1]: 88 % of control | T/C [2]: 100 % of control | T/C [3]: 88 % of control | T/C [4]: 100 % of control | T/C [5]: 113 % of control | T/C [6]: 100 % of control

C/C=C(\C)C(=O)N/N=C\c1cc(Cl)cc(Cl)c1O
T/C (dose: 25.0 mg/kg/injection, schedule: Q01DX009 (ip), vehicle: olive oil, sesame oil, peanut oil): 88 % of control | T/C (dose: 100.0 mg/kg/injection, schedule: Q01DX009 (ip), vehicle: olive oil, sesame oil, peanut oil): 89 % of control | T/C (dose: 200.0 mg/kg/injection, schedule: Q01DX009 (ip), vehicle: olive oil, sesame oil, peanut oil): 86 % of control

O=C(O)c1ccc2c(c1)C(=O)c1ccccc1S2(=O)=O
T/C [1]: 92 % of control | T/C [3]: 93 % of control

Cc1cccc(C)c1NC(=S)N(C)C
T/C (dose: 3.12 mg/kg/injection, schedule: Q01DX009 (ip), vehicle: Klucel (hydroxypropylcellulose) (HPC)): 102 % of control | T/C (dose: 3.13 mg/kg/injection, schedule: Q01DX009 (ip), vehicle: saline with Tween-80): 110 % of control | T/C (dose: 6.25 mg/kg/injection, schedule: Q01DX009 (ip), vehicle: Klucel (hydroxypropylcellulose) (HPC)): 100 % of control | T/C [8]: 115 % of control | T/C (dose: 12.5 mg/kg/injection, schedule: Q01DX009 (ip), vehicle: Klucel (hydroxypropylcellulose) (HPC)): 91 % of control and 100 % of control | T/C [9]: 112 % of control

CCc1ccc2c(c1)N(CC(C)CN(C)C)c1ccccc1S2 (centres undefined)
T/C [13]: 105 % of control | T/C [14]: 87 % of control and 111 % of control | T/C (dose: 3.12 mg/kg/injection, schedule: Q01DX009 (ip), vehicle: saline): 98 % of control and 108 % of control

CCC(C#N)=C1CCCCC1
T/C [10]: 102 % of control | T/C [16]: 106 % of control | T/C [11]: 114 % of control

CCC1=C(C[C@H]2NCCc3cc(OC)c(OC)cc32)C[C@H]2c3cc(OC)c(OC)cc3CCN2C1
T/C (dose: 2.0 mg/kg/injection, schedule: Q01DX009 (ip), vehicle: Klucel (hydroxypropylcellulose) (HPC)): 114 % of control | T/C [7]: 103 % of control and 111 % of control | T/C (dose: 4.0 mg/kg/injection, schedule: Q01DX009 (ip), vehicle: saline): 106 % of control and 107 % of control | T/C (dose: 5.0 mg/kg/injection, schedule: Q01DX005 (ip), vehicle: saline): 118 % of control | T/C (dose: 5.0 mg/kg/injection, schedule: Q01DX009 (ip), vehicle: Klucel (hydroxypropylcellulose) (HPC)): 116 % of control

CC[CH2][Sn]([Cl])([Cl])[CH2]CC.Oc1ccccc1C=NCCN=Cc1ccccc1O
T/C (dose: 0.6 mg/kg/injection, schedule: Q01DX009 (ip), vehicle: gum acacia): 95 % of control | T/C (dose: 0.61 mg/kg/injection, schedule: Q01DX009 (ip), vehicle: gum acacia): 100 % of control | T/C (dose: 1.25 mg/kg/injection, schedule: Q01DX009 (ip), vehicle: gum acacia): 92 % of control and 100 % of control | T/C (dose: 2.5 mg/kg/injection, schedule: Q01DX009 (ip), vehicle: gum acacia): 92 % of control and 94 % of control | T/C (dose: 5.0 mg/kg/injection, schedule: Q01DX009 (ip), vehicle: gum acacia): 90 % of control and 97 % of control

NNC(=O)Cc1nc2ccccc2[nH]c1=O
T/C (dose: 50.0 mg/kg/injection, schedule: Q01DX009 (ip), vehicle: Klucel (hydroxypropylcellulose) (HPC)): 96 % of control | T/C [1]: 96 % of control | T/C [3]: 90 % of control

CCN(C(=O)Nc1ccc(Cl)cc1)c1ccccc1C
T/C [11]: 97 % of control | T/C (dose: 200.0 mg/kg/injection, schedule: Q01DX009 (ip), vehicle: saline with Tween-80): 102 % of control | T/C [12]: 97 % of control

CCN(C(=O)Nc1ccccc1OC)c1ccccc1
T/C [1]: 89 % of control

CC(C)N(CCCC#N)C(C)C
T/C [10]: 91 % of control | T/C [16]: 102 % of control | T/C [11]: 100 % of control

Cc1ccc(NC(=O)Nc2ccccc2Cl)cc1
T/C (dose: 100.0 mg/kg/injection, schedule: Q01DX009 (ip), vehicle: gum acacia): 89 % of control

C=CC(=O)[O][Pb]([CH3])([CH3])[CH3]
T/C (dose: 0.75 mg/kg/injection, schedule: Q01DX009 (ip), vehicle: saline with Tween-80): 94 % of control | T/C (dose: 1.5 mg/kg/injection, schedule: Q01DX009 (ip), vehicle: saline with Tween-80): 95 % of control

CCCCCCCC(=O)Nc1ccc(C)cc1
T/C (dose: 50.0 mg/kg/injection, schedule: Q04DX003 (ip), vehicle: Klucel (hydroxypropylcellulose) (HPC)): 89 % of control | T/C [2]: 91 % of control

CCCCCC(O)C1C(=O)OC(C)C(O)/C=C/C=C/C=C/C=C\C=C(\C)C(O)CC(O)CC(O)CC(O)CC(O)CC(O)CC1O (centres undefined)
T/C (dose: 2.5 mg/kg/injection, schedule: Q01DX009 (ip), vehicle: saline): 120 % of control | T/C (dose: 5.0 mg/kg/injection, schedule: Q01DX009 (ip), vehicle: saline): 97 % of control | T/C (dose: 10.0 mg/kg/injection, schedule: Q01DX009 (ip), vehicle: saline): 88 % of control

CC1=CC(=O)C=CC1=Nc1ccc(N(C)C)cc1
T/C [10]: 91 % of control | T/C [16]: 90 % of control
